Values of other authors, collected in publication PMC8796384, “Plasma protein binding prediction focusing on residue-level features and circularity of cyclic peptides by deep learning” (Bioinformatics, 2021).
Like-named read-outs stand apart in the source and are kept apart here.

Legend:
[1] = test system: plasma proteins
Text: The external test (DrugBank) data contained some structurally similar pairs.

[2] = test system: plasma proteins; settings: whole-peptide descriptor model trained on small molecules; ref Tajimi et al. (2018)
[3] = experimental %PPB, below 50% rounded to 50%, above 95% rounded to 95%, DrugBank dataset collected by Tajimi et al. (2018), ref Wishart et al., 2018

Substance | %PPB50-95 [1, 3] [%] | other results
Anidulafungin | 84 | 
Caspofungin | 95 | 
Lanreotide | 81 | 
Micafungin | 95 | 
Pasireotide |  | %PPB50-95 [1]: 88%
Polymyxin B |  | %PPB50-95 [1]: 85.5%
daptomycin |  | predicted %PPB value by Tajimi [2]: 49%
